# Assay results as given in US20240279232A1, “USE OF SUBSTITUTED 5-(4-METHYL-6-PHENYL-4H-BENZO[F]IMIDAZO[1,5-A][1,4] DIAZEPIN-3-YL)-1,2,4-O[…] THE TREATMENT OF INFLAMMATORY CONDITIONS” (priority 2021, published 2024).
# Key:
# 5-HT2B = 5-HT2B (Homo sapiens, UniProt P41595); assay: PDSP primary binding 5-HT2B; conditions: PDSP primary screening
# Experimental: (§1) Because reduction of NO could not be reversed by GABAAR antagonists, the possible binding of MP-IV-010 to other cellular receptors was evaluated in collaboration with the NIMH Psychoactive Drug Screening Program.
# (§2) Psychoactive Drug Screening Program. Detailed protocols for the primary and secondary radioligand binding assays can be found in the National Institute of Mental Health's Psychoactive Drug Screening Program (NIMH PDSP) Assay Protocol Book. Briefly, primary and secondary radioligand binding assays are carried out in a final of volume of 125 μL per well in appropriate binding buffer. The radioactive ligand concentration is close to the Kd. Total binding and nonspecific binding are determined in the absence and presence of 10 μM of appropriate reference compound, respectively. In brief, plates are usually incubated at room temperature and in the dark for 90 min. Reactions are stopped by vacuum filtration onto 0.3% polyethyleneimine (PEI) soaked 96-well filter mats using a 96-well Filtermate harvester, followed by three washes with cold PBS buffer. Scintillation cocktail is then melted onto the microwave-dried filters on a hot plate and radioactivity counted in a Microbeta counter. The data (n=6) were analyzed by nonlinear regression.
# NET = NET (Homo sapiens, UniProt P23975); assay: PDSP primary binding NET; conditions: PDSP primary screening
# Experimental: as §1, §2
# 5-HT2A = 5-HT2A (Homo sapiens, UniProt P28223); assay: PDSP primary binding 5-HT2A; conditions: PDSP primary screening
# Experimental: as §1, §2
# PBR = PBR (Rattus norvegicus, UniProt P16257); assay: PDSP primary binding PBR; conditions: PDSP primary screening
# Experimental: as §1, §2
# iNOS = target: T1, iNOS (Mus musculus, UniProt P29477); assay: iNOS activity of extracts of activated microglia incubated with compound; format: biochemical; conditions: 50 μM, extracts incubated 2 h
# T1 construct: endogenous in cells
# Experimental: Cellular proteins were isolated from mouse microglia and mouse microglia activated for 24 hours with IFNγ/LPS. Cellular proteins from activated microglia were treated for 2 hours with 50 μM MP-IV-010 and iNOS activity was determined for all protein extracts with an Abcam INOS Activity Assay kit (n=3).
# Next, the possible involvement of INOS in MP-IV-010 (and structurally similar compound GL-IV-03) mediated reduction of NO in activated microglia was investigated. INOS activity was measured in activated microglia after a 24-hour treatment with MP-IV-010. Second, proteins were harvested from microglia activated for 24 hours with LPS/INFγ, followed by a 2-hour treatment with MP-IV-010 before measuring iNOS activity. Finally, mRNA and protein levels were quantified for GL-IV-03 treated activated microglia to examine the transcriptional regulation of iNOS.
# iNOS activity assay. Mouse microglia were activated with 50 ng/mL LPS (Invivogen, NC9836) and 150 U/mL IFNγ (R&D Systems, 485MI100), and treated with compounds of interest in 6 well plates for 2 or 24 hours. […] Protein was collected, quantified, and analyzed with the Nitric Oxide Synthase Activity kit (Abcam, ab211083) with minor alterations to the established protocol. […] Absorbance at 540 nm was measured using a TECAN Infinite M1000 plate reader. Significance (n=3) was analyzed by ANOVA.
# SERT = SERT (Homo sapiens, UniProt P31645); assay: PDSP primary binding SERT; conditions: PDSP primary screening
# Experimental: as §1, §2
# Alpha2A = Alpha2A (Homo sapiens, UniProt P08913); assay: PDSP primary binding Alpha2A; conditions: PDSP primary screening
# Experimental: as §1, §2
# H3 = H3 (Homo sapiens, UniProt Q9Y5N1); assay: PDSP primary binding H3; conditions: PDSP primary screening
# Experimental: as §1, §2
# GABAA = assay: PDSP primary binding GABAA; conditions: PDSP primary screening
# Experimental: as §1, §2
smiles,measurement,setting,value
"C#Cc1ccc2c(c1)C(c1ccccc1F)=N[C@H](C)c1c(-c3nc(C(C)C)no3)ncn1-2 [MP-IV-010, (R)-5-(8-ethynyl-6-(2-fluorophenyl)-4-methyl-4H-benzo[f]imidazo[1,5-a][1,4]diazepin-3-yl)-3-isopropyl-1,2,4-oxadiazole]",Percent Competition 5-HT2B,5-HT2B,0%
same,Percent Competition NET,NET,−2%
same,Percent Competition 5-HT2A,5-HT2A,−1%
same,Percent Competition PBR,PBR,28%
same,iNOS activity of cellular extracts (direct inhibition),iNOS,did not differ from the vehicle treated cell extract
same,Percent Competition SERT,SERT,22%
same,Percent Competition Alpha2A,Alpha2A,14%
same,Percent Competition H3,H3,−18%
same,Percent Competition GABAA,GABAA,−8%
